The series in a line: gradient 5% acetonitrile 3 min, to 50% in 2 min, to 85% in 15 min, held 3 min, 100 µL/min. As to conditions: column: Zorbax Extend-C18 2.1 x 50 mm; eluents: water / acetonitrile, 0.1% formic acid. In short, it runs like this: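 The mobile phases were water and acetonitrile, each with 0.1% formic acid, pumped at 100 μL/min through a Zorbax Extend-C18 column (2.1 × 50 mm, 1.8 μm). Pure standards were injected as mixtures of ~100 molecules and detected by a quadrupole time-of-flight mass spectrometer in positive and negative ionization mode. Retention time came from computationally picked adduct peaks, each inspected by hand.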
`Cn1cc(S(=O)(=O)N2CCCCC2)cc1C(=O)Nc1ccc(F)c(Cl)c1` displayed an RP-LC retention time of 1100 s.
In turn, `Cn1cc(CN2CCCC(COc3ccccc3C(=O)N3CCCC3)C2)c2ccccc21` (configuration not stated) yielded an RP-LC retention time of 695 s.
The molecule `Cc1cc(C)n(CCC(=O)NCc2cccnc2Oc2ccccc2)n1` returned an RP-LC retention time of 706 s.
With `Fc1cc(CN2CCC(Cc3nnc(C4CCOCC4)o3)C2)ccc1Cl` (configuration not stated), the RP-LC retention time stood at 603 s.
As for `O=C(COc1ccc(Cl)cc1Cl)Nc1nc(-c2ccccc2)cs1`, the RP-LC retention time turned out to be 1190 s.
`CCCN(CC1CCOC1)S(=O)(=O)c1cccc(C)c1` (configuration not stated) registered an RP-LC retention time of 931 s.
`Cc1cc(C)c(S(=O)(=O)N2CCC(N3CCN(Cc4ccccc4)C(=O)C3=O)CC2)cc1C`: the RP-LC retention time was determined as 917 s.
As for `CC(C)Oc1ccccc1CN1CC(F)(F)C[C@H]1COc1ccncc1`, the RP-LC retention time came to 752 s.
`O=C(Nc1ccc(N2CCN(C3CCCC3)C2=O)nc1)c1cccnc1`: the RP-LC retention time was 638 s.
In turn, `O=C(CCCS(=O)(=O)c1ccc(F)cc1)Nc1cccc(Cl)c1Cl` displayed an RP-LC retention time of 850 s.
The result for `Cc1nc(-c2noc(-c3ccncc3)n2)cn1CC(=O)NCc1ccc(F)cc1` reads 885 s.
The figure for `O=C(Cn1nc2c(Oc3ccc(Cl)cc3)nccn2c1=O)NC1CCCC1` is 810 s; for `O=C(NCCN1CCCCCC1)C1CCCN(c2ncc(-c3ccc(F)cc3)cn2)C1` (configuration not stated) it is 715 s.
`O=C(CN1C(=O)CCCc2cc(S(=O)(=O)N3CCCCC3)ccc21)Nc1ccccc1` showed an RP-LC retention time of 885 s.
In turn, `CCCCS(=O)(=O)N1CCCC(c2nnc(-c3ccc4c(c3)OCO4)o2)C1` (configuration not stated) returned an RP-LC retention time of 819 s.
`Cc1c(C(=O)NC2CCCC2)cnn1-c1cc(-c2nc(C(C)(C)C)no2)ccn1` returned an RP-LC retention time of 1130 s.
The molecule `Cc1sc(-c2cc(C(F)(F)F)on2)cc1S(=O)(=O)Nc1ccc2c(c1)OCCO2` had an RP-LC retention time of 1070 s.
In turn, `COc1ccc(CNC(=O)c2[nH]c3cc(C)sc3c2CN(C)C)cc1` came in with an RP-LC retention time of 664 s.
Take `O=C(NC1CCCCC1)c1ccc2ccnc(N3CCN(c4ccccc4)CC3)c2c1`: the RP-LC retention time is 851 s.
`CCc1ccc(S(=O)(=O)N2CCCN(c3ccc(=O)n(-c4ccccc4)n3)CC2)cc1` showed an RP-LC retention time of 904 s.
In the case of `COc1ccc2c(c1)C1(CCN(S(=O)(=O)c3ccc(OC)c(OC)c3)C1)C(=O)N2` (configuration not stated), the RP-LC retention time amounted to 757 s.
On to `Cc1oc(-c2[nH]ncc2C(=O)N2CCCC2)cc1S(=O)(=O)NCc1ccc(F)cc1F`, for which the RP-LC retention time turned out to be 710 s.
In the case of `O=C(c1ccc2cc[nH]c2c1)N1CCN(C(=O)c2cc(-c3ccncc3)n[nH]2)CC1`, the RP-LC retention time worked out at 594 s.
In turn, `O=C(NCc1ccco1)c1c(O)c2cccnc2n(-c2ccc(F)cc2)c1=O` yielded an RP-LC retention time of 1280 s.
The figure for `Cc1c(S(=O)(=O)N2c3ccccc3CC2C)cc(C(=O)N2CCC(C)CC2)n1C` (configuration not stated) is 723 s; for `Cc1ccc(F)c(NC(=O)c2cc(C(C)C)n3nccc3n2)c1` it is 1250 s.
The figure for `O=CN1CC/C(=C/c2ccc3c(c2)OCO3)C1=O` is 784 s.
Turning to `N#Cc1ccc(Cl)cc1NC(=O)C1CCN(c2ccc(-c3cccs3)nn2)CC1`, the RP-LC retention time was found to be 702 s.
The figure for `CN(CCNC(=O)C1CCCN(c2ncnc3c2nc2n3CCCCC2)C1)Cc1ccccc1` (configuration not stated) is 623 s.
Molecule `COc1ccc(C2c3c(n(C)c4ccccc34)C(=O)N2CC(=O)NCc2ccco2)cc1` (configuration not stated) gave an RP-LC retention time of 924 s.
`Oc1cc2c(c(Cl)c1O)CCNC[C@@H]2c1ccccc1` showed an RP-LC retention time of 648 s.
The figure for `CCN1C(=O)c2cccnc2Sc2cc(NC(=O)C3(c4ccccc4)CC3)ccc21` is 937 s.

The record behind these values is the METLIN SMRT retention time set (Domingo-Almenara et al. 2019).
